Experimental data as given in ChEMBL document CHEMBL5291721, “A preclinical secondary pharmacology resource illuminates target-adverse drug reaction associations of marketed drugs” (Nat Commun, 2023).

How the values were obtained:
[1] = molecular target: 5-hydroxytryptamine receptor 2B (Homo sapiens, UniProt P41595); format: functional, cell-based
D(1A) dopamine receptor = D(1A) dopamine receptor (Homo sapiens, UniProt P21728)
D(3) dopamine receptor = D(3) dopamine receptor (Homo sapiens, UniProt P35462)
Thromboxane A2 receptor [2] = molecular target: T1, Thromboxane A2 receptor (Homo sapiens, UniProt P21731); format: functional, cell-based
T1 sequence (P21731 whole entry): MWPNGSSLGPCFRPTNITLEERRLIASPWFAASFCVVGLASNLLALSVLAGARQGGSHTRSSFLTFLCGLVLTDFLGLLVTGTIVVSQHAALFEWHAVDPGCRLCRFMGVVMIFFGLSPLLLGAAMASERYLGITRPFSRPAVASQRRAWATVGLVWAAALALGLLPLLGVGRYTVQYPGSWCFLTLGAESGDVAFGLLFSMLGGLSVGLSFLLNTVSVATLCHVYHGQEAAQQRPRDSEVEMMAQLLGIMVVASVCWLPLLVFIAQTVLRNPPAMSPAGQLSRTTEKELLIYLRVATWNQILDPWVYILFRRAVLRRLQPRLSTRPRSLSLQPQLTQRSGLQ

Mu-type opioid receptor = Mu-type opioid receptor (Homo sapiens, UniProt P35372)
Mu-type opioid receptor, sequence (P35372 whole entry): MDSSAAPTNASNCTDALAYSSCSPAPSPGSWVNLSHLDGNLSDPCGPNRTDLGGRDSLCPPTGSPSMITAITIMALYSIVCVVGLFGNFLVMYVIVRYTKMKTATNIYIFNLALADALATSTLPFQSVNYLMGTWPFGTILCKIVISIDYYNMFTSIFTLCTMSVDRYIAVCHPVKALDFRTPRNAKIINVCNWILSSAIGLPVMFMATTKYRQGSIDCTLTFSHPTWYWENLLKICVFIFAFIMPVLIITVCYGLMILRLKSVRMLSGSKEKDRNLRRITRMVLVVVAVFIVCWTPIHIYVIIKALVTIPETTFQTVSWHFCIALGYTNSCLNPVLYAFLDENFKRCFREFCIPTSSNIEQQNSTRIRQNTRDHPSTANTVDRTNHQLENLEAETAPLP

[3] = molecular target: T2, 5-hydroxytryptamine receptor 1A (Homo sapiens, UniProt P08908)
T2 sequence (P08908 whole entry): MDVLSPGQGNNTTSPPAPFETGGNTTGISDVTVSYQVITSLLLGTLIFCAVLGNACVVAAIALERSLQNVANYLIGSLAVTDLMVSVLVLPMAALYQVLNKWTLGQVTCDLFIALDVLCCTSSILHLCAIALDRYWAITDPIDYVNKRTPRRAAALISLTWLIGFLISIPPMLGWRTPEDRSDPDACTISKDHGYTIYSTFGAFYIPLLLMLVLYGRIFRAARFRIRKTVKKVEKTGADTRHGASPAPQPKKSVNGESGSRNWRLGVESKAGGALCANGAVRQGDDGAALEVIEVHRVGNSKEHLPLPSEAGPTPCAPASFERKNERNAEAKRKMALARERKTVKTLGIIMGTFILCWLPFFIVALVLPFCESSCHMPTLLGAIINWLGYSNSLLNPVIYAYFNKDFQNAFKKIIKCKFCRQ

[4] = molecular target: Voltage-gated inwardly rectifying potassium channel KCNH2 (Homo sapiens, UniProt Q12809); format: functional
Voltage-gated inwardly rectifying potassium channel KCNH2, sequence (Q12809 whole entry): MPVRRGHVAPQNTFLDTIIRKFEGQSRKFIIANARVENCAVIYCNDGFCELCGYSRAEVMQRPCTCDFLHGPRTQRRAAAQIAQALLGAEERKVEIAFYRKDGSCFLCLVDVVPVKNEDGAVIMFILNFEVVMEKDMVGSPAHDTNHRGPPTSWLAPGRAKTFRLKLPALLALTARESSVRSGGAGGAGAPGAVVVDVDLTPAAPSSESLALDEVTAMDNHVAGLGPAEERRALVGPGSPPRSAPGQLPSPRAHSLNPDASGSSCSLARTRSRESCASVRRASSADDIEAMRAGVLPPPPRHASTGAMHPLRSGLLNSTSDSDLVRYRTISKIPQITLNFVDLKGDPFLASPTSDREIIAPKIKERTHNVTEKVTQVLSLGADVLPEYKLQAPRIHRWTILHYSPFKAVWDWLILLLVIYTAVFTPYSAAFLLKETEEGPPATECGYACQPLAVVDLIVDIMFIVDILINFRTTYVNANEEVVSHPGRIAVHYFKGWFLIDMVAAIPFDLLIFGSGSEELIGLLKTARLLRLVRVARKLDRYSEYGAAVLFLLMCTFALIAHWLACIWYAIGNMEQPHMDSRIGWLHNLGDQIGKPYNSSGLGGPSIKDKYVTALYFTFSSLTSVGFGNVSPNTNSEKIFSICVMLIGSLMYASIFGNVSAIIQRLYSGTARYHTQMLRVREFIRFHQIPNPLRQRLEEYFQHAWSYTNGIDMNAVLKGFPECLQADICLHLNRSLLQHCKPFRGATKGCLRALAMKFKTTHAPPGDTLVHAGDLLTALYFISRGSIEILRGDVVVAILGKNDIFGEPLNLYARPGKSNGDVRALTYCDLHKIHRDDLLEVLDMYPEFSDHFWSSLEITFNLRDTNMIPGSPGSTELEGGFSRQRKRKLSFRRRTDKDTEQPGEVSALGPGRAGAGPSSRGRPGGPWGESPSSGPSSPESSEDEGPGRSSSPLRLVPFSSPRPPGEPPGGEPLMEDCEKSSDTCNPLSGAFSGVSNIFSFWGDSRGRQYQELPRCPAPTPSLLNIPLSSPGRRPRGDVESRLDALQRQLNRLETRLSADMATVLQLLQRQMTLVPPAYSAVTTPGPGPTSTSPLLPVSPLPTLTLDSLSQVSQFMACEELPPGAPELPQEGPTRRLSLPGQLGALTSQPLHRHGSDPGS

Prothrombin = Prothrombin (Homo sapiens, UniProt P00734); format: functional
[5] = molecular target: Prostaglandin G/H synthase 1 (Homo sapiens, UniProt P23219); format: functional
Prostaglandin G/H synthase 1, sequence (P23219 whole entry): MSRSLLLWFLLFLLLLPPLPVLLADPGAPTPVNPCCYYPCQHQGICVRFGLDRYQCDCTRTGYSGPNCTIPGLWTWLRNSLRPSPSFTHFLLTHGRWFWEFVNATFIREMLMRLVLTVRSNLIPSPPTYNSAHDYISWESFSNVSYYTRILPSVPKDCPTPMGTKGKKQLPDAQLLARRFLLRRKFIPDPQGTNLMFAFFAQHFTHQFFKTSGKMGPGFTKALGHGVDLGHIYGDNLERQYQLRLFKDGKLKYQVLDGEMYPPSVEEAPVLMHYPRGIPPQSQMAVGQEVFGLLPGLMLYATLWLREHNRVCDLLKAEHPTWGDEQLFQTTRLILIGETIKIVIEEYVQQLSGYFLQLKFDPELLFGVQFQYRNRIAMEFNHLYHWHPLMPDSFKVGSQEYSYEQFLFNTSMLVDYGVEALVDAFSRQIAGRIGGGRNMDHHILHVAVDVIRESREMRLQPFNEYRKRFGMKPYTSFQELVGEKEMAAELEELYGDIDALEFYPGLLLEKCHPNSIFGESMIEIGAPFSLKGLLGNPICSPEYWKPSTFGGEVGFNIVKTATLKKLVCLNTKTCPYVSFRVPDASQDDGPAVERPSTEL

[6] = molecular target: T3, Amine oxidase [flavin-containing] A (Homo sapiens, UniProt P21397); format: functional
T3 sequence (P21397 whole entry): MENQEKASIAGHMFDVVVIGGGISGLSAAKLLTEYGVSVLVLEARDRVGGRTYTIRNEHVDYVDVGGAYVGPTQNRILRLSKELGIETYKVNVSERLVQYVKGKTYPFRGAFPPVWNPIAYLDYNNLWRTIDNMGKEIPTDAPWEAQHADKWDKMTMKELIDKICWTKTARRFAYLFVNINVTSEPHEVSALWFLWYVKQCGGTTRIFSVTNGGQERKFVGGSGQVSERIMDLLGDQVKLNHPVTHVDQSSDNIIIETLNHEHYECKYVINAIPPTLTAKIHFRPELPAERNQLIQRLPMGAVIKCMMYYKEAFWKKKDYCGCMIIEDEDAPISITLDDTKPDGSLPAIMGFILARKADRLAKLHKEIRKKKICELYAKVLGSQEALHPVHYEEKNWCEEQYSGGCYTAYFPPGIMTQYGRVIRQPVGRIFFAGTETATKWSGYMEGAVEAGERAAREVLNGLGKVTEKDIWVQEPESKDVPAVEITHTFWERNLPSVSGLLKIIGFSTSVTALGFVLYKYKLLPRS

[7] = molecular target: Sodium-dependent noradrenaline transporter (Homo sapiens, UniProt P23975)
Sodium-dependent noradrenaline transporter, sequence (P23975 whole entry): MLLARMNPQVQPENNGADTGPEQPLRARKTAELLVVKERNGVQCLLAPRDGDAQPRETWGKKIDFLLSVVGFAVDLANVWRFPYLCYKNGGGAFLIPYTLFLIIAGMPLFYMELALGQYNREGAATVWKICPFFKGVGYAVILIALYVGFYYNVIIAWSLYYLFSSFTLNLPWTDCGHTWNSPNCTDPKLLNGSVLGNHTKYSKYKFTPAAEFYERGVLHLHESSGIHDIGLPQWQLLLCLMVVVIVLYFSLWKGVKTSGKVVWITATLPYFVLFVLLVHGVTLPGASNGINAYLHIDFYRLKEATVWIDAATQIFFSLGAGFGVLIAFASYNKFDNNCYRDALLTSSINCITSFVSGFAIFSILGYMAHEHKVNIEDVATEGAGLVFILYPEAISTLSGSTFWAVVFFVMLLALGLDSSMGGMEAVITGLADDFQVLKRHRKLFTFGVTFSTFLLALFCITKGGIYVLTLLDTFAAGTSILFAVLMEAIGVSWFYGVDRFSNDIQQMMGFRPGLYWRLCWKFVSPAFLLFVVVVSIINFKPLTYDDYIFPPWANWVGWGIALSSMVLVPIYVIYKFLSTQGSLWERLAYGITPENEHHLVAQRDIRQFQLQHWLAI

[8] = molecular target: Sodium-dependent dopamine transporter (Homo sapiens, UniProt Q01959)
Sodium-dependent dopamine transporter, sequence (Q01959 whole entry): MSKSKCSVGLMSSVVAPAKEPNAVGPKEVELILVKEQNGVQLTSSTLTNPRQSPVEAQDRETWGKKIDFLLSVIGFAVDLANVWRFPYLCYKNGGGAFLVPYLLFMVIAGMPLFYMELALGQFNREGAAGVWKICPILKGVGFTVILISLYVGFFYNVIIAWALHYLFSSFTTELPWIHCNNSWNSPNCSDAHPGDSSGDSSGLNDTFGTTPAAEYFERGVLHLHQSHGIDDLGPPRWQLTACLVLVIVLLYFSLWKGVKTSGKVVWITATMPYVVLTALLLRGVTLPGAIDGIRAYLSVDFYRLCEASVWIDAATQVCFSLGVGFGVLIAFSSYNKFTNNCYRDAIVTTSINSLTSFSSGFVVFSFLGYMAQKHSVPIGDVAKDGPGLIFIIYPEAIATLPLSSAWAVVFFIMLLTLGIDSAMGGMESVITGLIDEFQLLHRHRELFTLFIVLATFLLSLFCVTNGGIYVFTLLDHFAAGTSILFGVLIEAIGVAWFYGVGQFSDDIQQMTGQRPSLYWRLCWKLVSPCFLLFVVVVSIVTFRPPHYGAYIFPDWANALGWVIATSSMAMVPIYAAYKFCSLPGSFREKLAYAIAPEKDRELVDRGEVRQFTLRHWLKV

Histamine H3 receptor = Histamine H3 receptor (Homo sapiens, UniProt Q9Y5N1)
Histamine H3 receptor, sequence (Q9Y5N1 whole entry): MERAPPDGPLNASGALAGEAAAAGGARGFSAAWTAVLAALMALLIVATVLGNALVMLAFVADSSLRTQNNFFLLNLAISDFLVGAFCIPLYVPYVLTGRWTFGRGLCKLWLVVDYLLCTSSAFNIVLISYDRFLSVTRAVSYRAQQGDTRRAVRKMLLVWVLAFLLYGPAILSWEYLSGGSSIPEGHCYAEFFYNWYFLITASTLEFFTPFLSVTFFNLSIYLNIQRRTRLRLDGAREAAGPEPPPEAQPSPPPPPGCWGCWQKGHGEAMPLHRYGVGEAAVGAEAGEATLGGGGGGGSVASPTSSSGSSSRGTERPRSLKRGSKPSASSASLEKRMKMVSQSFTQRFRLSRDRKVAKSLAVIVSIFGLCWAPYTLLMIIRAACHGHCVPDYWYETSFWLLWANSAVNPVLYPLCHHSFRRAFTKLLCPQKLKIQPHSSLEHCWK

Thromboxane A2 receptor [9] = molecular target: T1, Thromboxane A2 receptor; format: functional, cell-based; remark: listed apart in the source
Acetylcholinesterase = Acetylcholinesterase (Homo sapiens, UniProt P22303); format: functional
Acetylcholinesterase, sequence (P22303 whole entry): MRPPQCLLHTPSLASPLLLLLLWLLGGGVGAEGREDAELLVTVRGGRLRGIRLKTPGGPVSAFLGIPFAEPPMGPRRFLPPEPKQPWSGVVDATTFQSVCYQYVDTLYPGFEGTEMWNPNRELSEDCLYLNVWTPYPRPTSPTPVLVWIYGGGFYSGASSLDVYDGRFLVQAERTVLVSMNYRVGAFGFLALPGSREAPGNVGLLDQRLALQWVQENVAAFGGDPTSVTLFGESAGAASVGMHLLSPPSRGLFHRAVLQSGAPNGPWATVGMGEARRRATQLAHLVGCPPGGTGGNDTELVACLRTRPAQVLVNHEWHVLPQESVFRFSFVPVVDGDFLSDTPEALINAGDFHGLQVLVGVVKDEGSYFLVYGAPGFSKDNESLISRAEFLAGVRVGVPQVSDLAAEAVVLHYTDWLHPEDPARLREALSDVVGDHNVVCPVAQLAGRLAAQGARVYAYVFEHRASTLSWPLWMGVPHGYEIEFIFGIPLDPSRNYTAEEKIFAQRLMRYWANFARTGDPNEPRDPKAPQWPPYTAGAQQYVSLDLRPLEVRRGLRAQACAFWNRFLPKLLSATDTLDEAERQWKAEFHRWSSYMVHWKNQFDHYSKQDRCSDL

[10] = molecular target: T4, Muscarinic acetylcholine receptor M2 (Homo sapiens, UniProt P08172)
T4 sequence (P08172 whole entry): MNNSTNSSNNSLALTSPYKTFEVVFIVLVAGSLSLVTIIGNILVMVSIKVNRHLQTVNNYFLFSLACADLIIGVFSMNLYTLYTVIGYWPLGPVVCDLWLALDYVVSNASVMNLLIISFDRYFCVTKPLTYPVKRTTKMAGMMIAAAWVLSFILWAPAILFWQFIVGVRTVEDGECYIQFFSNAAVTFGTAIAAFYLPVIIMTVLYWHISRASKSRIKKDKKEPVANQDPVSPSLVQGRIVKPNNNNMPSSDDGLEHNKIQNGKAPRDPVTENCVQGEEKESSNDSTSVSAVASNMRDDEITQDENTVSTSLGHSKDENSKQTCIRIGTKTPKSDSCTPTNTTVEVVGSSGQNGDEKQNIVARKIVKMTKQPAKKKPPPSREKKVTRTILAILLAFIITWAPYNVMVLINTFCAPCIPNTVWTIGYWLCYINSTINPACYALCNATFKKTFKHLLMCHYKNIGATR
Also: assay procedure not described here.

5-hydroxytryptamine receptor 2B, sequence (P41595 whole entry): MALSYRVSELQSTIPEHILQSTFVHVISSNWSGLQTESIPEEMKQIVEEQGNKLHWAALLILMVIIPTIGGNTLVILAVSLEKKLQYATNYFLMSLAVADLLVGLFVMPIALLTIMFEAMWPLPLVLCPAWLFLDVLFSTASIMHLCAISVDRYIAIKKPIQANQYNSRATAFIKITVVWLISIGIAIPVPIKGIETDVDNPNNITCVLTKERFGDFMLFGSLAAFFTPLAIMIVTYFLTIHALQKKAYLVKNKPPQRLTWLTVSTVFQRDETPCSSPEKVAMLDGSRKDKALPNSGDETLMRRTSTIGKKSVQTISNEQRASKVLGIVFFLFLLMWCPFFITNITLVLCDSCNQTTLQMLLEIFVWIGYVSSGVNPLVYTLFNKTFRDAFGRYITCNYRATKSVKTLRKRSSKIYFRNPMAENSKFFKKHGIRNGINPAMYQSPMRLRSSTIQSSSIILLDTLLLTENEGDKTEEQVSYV

| Structure (SMILES) | AC50 [1] [µM] | AC50 (D(1A) dopamine receptor) [µM] | AC50 (D(3) dopamine receptor) [µM] | AC50 (Thromboxane A2 receptor [2]) [µM] | AC50 (Mu-type opioid receptor) [µM] | AC50 [3] [µM] | AC50 [4] [µM] | AC50 (Prothrombin) [µM] | AC50 [5] [µM] | AC50 [6] [µM] | AC50 [7] [µM] | AC50 [8] [µM] | AC50 (Histamine H3 receptor) [µM] | AC50 (Thromboxane A2 receptor [9]) [µM] | AC50 (Acetylcholinesterase) [µM] | AC50 [10] [µM] |
| --- | --- | --- | --- | --- | --- | --- | --- | --- | --- | --- | --- | --- | --- | --- | --- | --- |
| CN(CC1(C)CCCO1)S(=O)(=O)c1ccc(Cl)c(S(N)(=O)=O)c1 (stereo not drawn) [MEFRUSIDE] | > 30 | > 30 | > 30 | > 30 | > 30 | > 30 | > 30 | > 30 | > 30 | > 30 | > 30 | > 30 | > 30 | > 30 | > 30 | > 30 |
| CC(=O)O[C@]1(C(C)=O)CC[C@H]2[C@@H]3C=C(C)C4=CC(=O)CC[C@@H]4[C@H]3CC[C@@]21C [NOMEGESTROL ACETATE] | > 30 | > 30 | > 30 | > 10 | > 30 | > 30 | > 30 | > 30 | > 30 | > 30 | > 30 | > 30 | > 30 | > 30 | > 30 | > 30 |
| CCn1cc(C(=O)O)c(=O)c2cc3c(cc21)OCO3 [OXOLINIC ACID] | > 30 | > 30 | > 30 | > 30 | > 30 | > 30 | > 30 | > 30 | > 30 | > 30 | > 30 | > 30 | > 30 | > 30 | > 30 | > 30 |
| FC(F)(F)c1ccc(CNc2ccc(Cc3c[nH]c4ncc(Cl)cc34)cn2)cn1 [PEXIDARTINIB] | > 30 | 20.2 | 10.2 | 8.61 | 13.4 | 0.627 | 8.6 | > 30 | > 30 | > 30 | 3.96 | 9.3 | > 30 | > 30 | > 30 | 0.496 |
| Nc1ccc(C(=O)Oc2ccccc2)c(O)c1 [PHENYL AMINOSALICYLATE] | > 30 | > 30 | > 30 | 17.2 | > 30 | > 30 | > 30 | > 30 | > 30 | > 30 | 0.777 | 0.235 | > 30 | > 30 | > 30 | > 30 |
| CN1CCC(=C2c3ccccc3Sc3ccccc32)CC1 [PIMETHIXENE] | > 30 | 0.0552 | 0.0497 | 14 | 8.56 | 0.0145 | 3.9 | > 30 | > 30 | > 30 | 0.142 | 11.2 | > 30 | > 30 | > 30 | 0.0071 |
| [H]/N=C(\N/C(=N/[H])Nc1ccc(Cl)cc1)NC(C)C [PROGUANIL] | > 30 | 8.26 | > 30 | > 30 | > 30 | > 30 | 19 | > 30 | > 30 | > 30 | 1.07 | 12.5 | > 30 | > 30 | > 30 | > 30 |
| CC(CN1CC(=O)NC(=O)C1)N1CC(=O)NC(=O)C1 (stereo not drawn) [RAZOXANE] | > 30 | > 30 | > 30 | > 30 | > 30 | > 30 | > 30 | > 30 | > 3 | > 30 | > 30 | > 30 | > 30 | > 30 | > 10 | > 30 |
| N[C@@H](CO)C(=O)O [SERINE] | > 30 | > 30 | > 30 | > 30 | > 30 | > 30 | > 30 | > 30 | > 30 | > 10 | > 30 | > 30 | > 30 | > 30 | > 30 | > 30 |
| OC[C@H]1O[C@@](CO)(O[C@H]2O[C@H](CO)[C@@H](O)[C@H](O)[C@H]2O)[C@@H](O)[C@@H]1O [SUCROSE] | > 30 | > 30 | > 30 | > 30 | > 30 | > 30 | > 30 | > 30 | > 30 | > 30 | > 30 | > 30 | > 30 | > 30 | > 30 | > 30 |
| CC(C)OC(=O)CCC/C=C\C[C@@H]1[C@@H](/C=C/C(F)(F)COc2ccccc2)[C@H](O)C[C@@H]1O [TAFLUPROST] | > 30 | > 30 | > 30 | 29.6 | > 30 | > 30 | > 30 | > 30 | > 30 | > 30 | > 30 | > 30 | > 30 | > 30 | > 30 | > 30 |
| C[C@]1(Cn2ccnn2)[C@H](C(=O)O)N2C(=O)C[C@H]2S1(=O)=O [TAZOBACTAM] | > 30 | > 30 | > 30 | > 30 | > 30 | > 30 | > 30 | > 30 | > 30 | > 30 | > 30 | > 30 | > 30 | > 30 | > 30 | > 30 |
| CC[C@H]1OC(=O)[C@H](C)C(=O)[C@H](C)[C@@H](O[C@@H]2O[C@H](C)C[C@H](N(C)C)[C@H]2O)[C@](C)(OC)C[C@@H](C)C(=O)[C@H](C)[C@H]2N(CCCCn3cnc(-c4cccnc4)c3)C(=O)O[C@]12C [TELITHROMYCIN] | > 30 | > 30 | > 30 | > 30 | > 30 | > 30 | > 30 | > 30 | 20.6 | > 30 | > 30 | > 30 | > 30 | > 30 | > 30 | > 30 |
